Molecular target: T1, human mAChR M4 (Homo sapiens, UniProt P08173)
T1 construct: expressed in transfected cells
T1 sequence (P08173 1-479): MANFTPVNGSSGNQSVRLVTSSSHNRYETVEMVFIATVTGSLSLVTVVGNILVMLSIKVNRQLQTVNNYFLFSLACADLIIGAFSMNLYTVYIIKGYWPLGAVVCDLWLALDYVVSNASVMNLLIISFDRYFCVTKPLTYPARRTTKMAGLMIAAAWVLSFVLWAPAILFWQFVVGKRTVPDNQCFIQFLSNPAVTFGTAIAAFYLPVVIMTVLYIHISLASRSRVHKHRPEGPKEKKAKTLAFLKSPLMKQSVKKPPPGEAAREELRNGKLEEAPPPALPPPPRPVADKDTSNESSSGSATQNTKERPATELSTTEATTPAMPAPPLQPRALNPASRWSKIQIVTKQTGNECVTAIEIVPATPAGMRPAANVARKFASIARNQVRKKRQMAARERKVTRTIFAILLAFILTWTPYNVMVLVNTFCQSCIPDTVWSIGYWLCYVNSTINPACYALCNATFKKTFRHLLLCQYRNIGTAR
Experiment: mAChR M4 cell-based functional assay (calcium mobilization, CHO-K1 hM4-Gqi5 cells)
Settings: for Emax at 30 µM: CHO-K1, % ACh maximum at 30 μM, human M4; for EC50: positive allosteric modulator activity, increase in the EC20 acetylcholine response, CHO-K1 hM4-Gqi5 cells, read-out: Human M4 EC50
Method in brief: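 Fluorescent calcium read-out (Fluo-4 AM, FDSS, 1 Hz) in hM4-Gqi5 CHO-K1 cells, 11-point 1:3 compound series. Agonism scored on compound addition, PAM activity as increase of the 144 s EC20 acetylcholine response, antagonism as decrease of the 230 s EC80 response; four-parameter logistic fits give EC50 and Emax.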

Row | Compound | Emax at 30 µM [%] | EC50 [nM] | Emax (CHO-K1) [%]
1 | Cc1cc(C(=O)NCC2CCOCC2)cnc1N1CCc2ncccc2C1 [compound 160, 6-(7,8-dihydro-5H-1,6-naphthyridin-6-yl)-5-methyl-N-(tetrahydropyran-4-ylmethyl)pyridine-3-carboxamide] | 51 | ≥ 10000 | 
2 | Cc1cnc2c(c1)CN(c1nnc(C#N)cc1C)CC2 [Example 305, 5-methyl-6-(3-methyl-7,8-dihydro-1,6-naphthyridin-6(5H)-yl)pyridazine-3-carbonitrile] |  | 537 | 105
3 | Cc1cc(C#N)cnc1N1CCc2ncc(-c3cncs3)cc2C1 [compound 95, 5-methyl-6-(3-thiazol-5-yl-7,8-dihydro-5H-1,6-naphthyridin-6-yl)pyridine-3-carbonitrile] | 98 | 84.1 | 
4 | Cc1cc(C(=O)NCc2ncc(Cl)cn2)cnc1N1CCc2ncccc2C1 [compound 146, N-[(5-chloropyrimidin-2-yl)methyl]-6-(7,8-dihydro-5H-1,6-naphthyridin-6-yl)-5-methyl-pyridine-3-carboxamide] | 56 | ≥ 10000 | 
5 | Cc1cc(C(=O)N2CC(CO)(CO)C2)nnc1N1CCc2ncc(CC(F)(F)F)cc2C1 [Example 584, (3,3-bis(hydroxymethyl)azetidin-1-yl)(5-methyl-6-(3-(2,2,2-trifluoroethyl)-7,8-dihydro-1,6-naphthyridin-6(5H)-yl)pyridazin-3-yl)methanone] | 91 | 533 | 
6 | Cc1nc(NCC(C)(C)O)nc(N2CCc3ncc(Nc4ccnn4C)cc3C2)c1C [compound 280, 1-((4,5-dimethyl-6-(3-((1-methyl-1H-pyrazol-5-yl)amino)-7,8-dihydro-1,6-naphthyridin-6(5/I)-yl)pyrimidin-2-yl)amino)-2-methylpropan-2-ol] | 105 | 261 | 
7 | Cc1cc(C(=O)N2CCCC2)nnc1N1CCc2ncc(-n3cccn3)cc2C1 [Example 530, (6-(3-(1H-pyrazol-1-yl)-7,8-dihydro-1,6-naphthyridin-6(5H)-yl)-5-methylpyridazin-3-yl)(pyrrolidin-1-yl)methanone] | 81 | 3030 | 

Continued, in another order:

Row | Emax at 30 µM [%] | EC50 [nM] | Compound | Emax (CHO-K1) [%]
8 | 98 | 111 | Cc1c(C(=O)Nc2ccncc2)nnc(N2CCc3ncc(C(F)(F)F)cc3C2)c1C [Example 466, 4,5-dimethyl-N-(pyridin-4-yl)-6-(3-(trifluoromethyl)-7,8-dihydro-1,6-naphthyridin-6(5H)-yl)pyridazine-3-carboxamide] | 
9 | 104 | 12 | [2H]C([2H])(NC(=O)c1cc(C)c(N2CCc3ncc(N4CCCn5nccc54)cc3C2)nn1)c1ccncc1 [Example 509, 6-(3-(6,7-dihydropyrazolo[1,5-a]pyrimidin-4(5H)-yl)-7,8-dihydro-1,6-naphthyridin-6(5H)-yl)-5-methyl-N-(pyridin-4-ylmethyl-d2)pyridazine-3-carboxamide] | 
10 | 78 | 921 | Cc1nc(Cl)c(C)c(N2CCc3ncc(Oc4ccc(F)cc4)cc3C2)n1 [compound 202, 6-(6-chloro-2,5-dimethyl-pyrimidin-4-yl)-3-(4-fluorophenoxy)-7,8-dihydro-5H-1,6-naphthyridine] | 
11 | 74 | 1150 | Cc1cc(C(=O)NCc2csc3ccccc23)cnc1N1CCc2ncccc2C1 [compound 128, N-(benzothiophen-3-ylmethyl)-6-(7,8-dihydro-5H-1,6-naphthyridin-6-yl)-5-methyl-pyridine-3-carboxamide] | 
12 | 95 | 167 | Cc1cc(C#N)cnc1N1CCc2ncc(Nc3cc(F)ccc3F)cc2C1 [compound 110, 6-[3-(2,5-difluoroanilino)-7,8-dihydro-5H-1,6-naphthyridin-6-yl]-5-methyl-pyridine-3-carbonitrile] | 
13 | 94 | 239 | Cc1cc(C#N)nnc1N1CCc2ncc(Nc3ccnn3C)cc2C1 [Example 311, 5-methyl-6-(3-((1-methyl-1H-pyrazol-5-yl)amino)-7,8-dihydro-1,6-naphthyridin-6(5H)-yl)pyridazine-3-carbonitrile] | 

Source: patent US20250230155A1 (Vanderbilt University, priority 2021, published 2025)
